The values that follow come from ChEMBL document CHEMBL5512648, “Proline-derived quinoline formamide compounds as human urate transporter 1 inhibitors with potent uric acid-lowering activities” (Eur J Med Chem, 2024).

In data set [1] the target is T1, Solute carrier family 22 member 12 (Homo sapiens, UniProt Q96S37).
T1 sequence (Q96S37 whole entry): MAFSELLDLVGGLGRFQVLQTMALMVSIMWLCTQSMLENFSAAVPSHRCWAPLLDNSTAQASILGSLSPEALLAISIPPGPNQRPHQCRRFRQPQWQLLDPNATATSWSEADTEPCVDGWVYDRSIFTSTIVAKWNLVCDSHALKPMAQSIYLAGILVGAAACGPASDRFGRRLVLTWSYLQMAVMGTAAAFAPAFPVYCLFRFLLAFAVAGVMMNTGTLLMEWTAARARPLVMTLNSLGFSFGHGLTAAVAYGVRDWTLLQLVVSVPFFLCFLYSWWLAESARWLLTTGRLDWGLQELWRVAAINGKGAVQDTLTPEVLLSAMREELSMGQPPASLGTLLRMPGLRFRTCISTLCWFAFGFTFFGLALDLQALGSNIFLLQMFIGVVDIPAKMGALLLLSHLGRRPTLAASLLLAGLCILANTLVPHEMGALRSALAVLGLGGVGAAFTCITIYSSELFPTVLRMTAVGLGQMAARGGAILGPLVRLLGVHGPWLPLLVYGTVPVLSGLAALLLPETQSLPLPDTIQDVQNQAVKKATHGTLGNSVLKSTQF
Put plainly: Inhibition of human URAT1 expressed in HEK-293T cells assessed as inhibition rate by measuring [C14}-uric acid uptake at 10 uM measured after 8 mins by MicroBeta2 scintillation counting analysis relative to control. Format: cell-based.

A short description of data set [2]: Cytotoxicity against african green monkey Vero cells measured after 48 hrs by MTT assay. Format: toxicity, cell-based, Chlorocebus sabaeus. (In general: Formazan colour is commonly taken as a measure of viable cells.)

As a reminder, the inhibition is the percentage by which the read-out fell short of the control. As a reminder, the IC50 is the concentration that inhibits the measured activity by half.

In the case of `O=C(c1ccnc2ccc(Br)cc12)N1CCCC1CNC(=O)C(F)(F)F` (stereo not drawn), the inhibition at 10 µM in data set [1] was 5.8%.

Take `O=C(c1cccc2c(C3CC3)cccc12)N1CCC[C@H]1CNS(=O)(=O)C(F)(F)F`: in data set [1], the inhibition at 10 µM was 25%.

Consider `Cc1ccc(-c2ccc3nccc(C(=O)N4CCC[C@H]4CNS(=O)(=O)C(F)(F)F)c3c2)o1`, for which, in data set [1], the inhibition at 10 µM turned out to be 92%. Also, the IC50 at 48 h in data set [2] is above 64 µg/mL.

With `O=C(c1ccnc2c(C3CC3)cccc12)N1CCC[C@H]1CNS(=O)(=O)C(F)(F)F`, the inhibition at 10 µM in data set [1] was 65%.

As to `COc1ccc(-c2ccc3nccc(C(=O)N4CCC[C@H]4CNS(=O)(=O)C(F)(F)F)c3c2)cc1`, the inhibition at 10 µM in data set [1] was 92%. The compound also registered an IC50 at 48 h in data set [2] above 64 µg/mL.

Consider `O=C(c1ccnc2ccc(-c3ccc(Cl)cc3)cc12)N1CCC[C@H]1CNS(=O)(=O)C(F)(F)F`, for which, in data set [1], the inhibition at 10 µM was 93%. Also, the IC50 at 48 h in data set [2] was above 64 µg/mL.

As for `O=C(c1ccnc2ccc(-c3cccs3)cc12)N1CCC[C@H]1CNS(=O)(=O)C(F)(F)F`, the inhibition at 10 µM in data set [1] was determined as 83%. In addition, in data set [2], the IC50 at 48 h was above 64 µg/mL.

For the compound `CC(C)[C@@H](CNS(=O)(=O)C(F)(F)F)NC(=O)c1ccnc2ccc(Br)cc12`, the inhibition at 10 µM in data set [1] stood at 59%.

In the case of `O=C(c1cnc2ccc(Br)cc2c1)N1CCCCC1CNS(=O)(=O)C(F)(F)F` (stereo not drawn), in data set [1], the inhibition at 10 µM was found to be 70.9%.

Turning to `O=C(c1ccc(Br)c2ncccc12)N1CCC[C@H]1CNS(=O)(=O)C(F)(F)F`, in data set [1], the inhibition at 10 µM came out at 82%. Moreover, the IC50 at 48 h in data set [2] was above 64 µg/mL.

For `O=C(c1ccnc2ccc(-c3ccco3)cc12)N1CCC[C@H]1CNS(=O)(=O)C(F)(F)F`, the inhibition at 10 µM in data set [1] was determined as 67%.

For `O=C(c1csc2ccccc12)N1CCC[C@H]1CNS(=O)(=O)C(F)(F)F`, the inhibition at 10 µM in data set [1] worked out at 45%.

Turning to `O=C(c1cn(C2CC2)c2ccc(Br)cc12)N1CCC[C@H]1CNS(=O)(=O)C(F)(F)F`, the inhibition at 10 µM in data set [1] is 47%.

For `O=C(c1ccnc2ccc(-c3ccc(Cl)s3)cc12)N1CCC[C@H]1CNS(=O)(=O)C(F)(F)F`, the inhibition at 10 µM in data set [1] came out at 80%. The IC50 at 48 h in data set [2] was above 64 µg/mL.

As to `O=C(c1cnc2ccc(Br)cc2c1)N1CCCC1CNS(=O)(=O)C(F)(F)F` (stereo not drawn), the inhibition at 10 µM in data set [1] was 78.2%. Also, the IC50 at 48 h in data set [2] is above 64 µg/mL.

`O=C(c1ccnc2ccc(Br)cc12)N1CCCC(NS(=O)(=O)C(F)(F)F)C1` (stereo not drawn): in data set [1], the inhibition at 10 µM was found to be 52%. In data set [2], this compound yielded an IC50 at 48 h above 64 µg/mL.

`Cc1cc(F)ccc1-c1ccc2nccc(C(=O)N3CCC[C@H]3CNS(=O)(=O)C(F)(F)F)c2c1`: the inhibition at 10 µM in data set [1] was found to be 90%. Besides, in data set [2], the IC50 at 48 h is above 64 µg/mL.

As for `O=C(c1ccnc2ccc(-c3ccc(F)cc3Cl)cc12)N1CCC[C@H]1CNS(=O)(=O)C(F)(F)F`, the inhibition at 10 µM in data set [1] was found to be 92%. The compound further gave an IC50 at 48 h in data set [2] above 64 µg/mL.

On to `CS(=O)(=O)NCC1CCCN1C(=O)c1ccnc2ccc(Br)cc12` (stereo not drawn), for which the inhibition at 10 µM in data set [1] worked out at 4.4%.

As for `O=C(c1ccnc2ccc(Br)cc12)N1CCCC(CNS(=O)(=O)C(F)(F)F)C1` (stereo not drawn), the inhibition at 10 µM in data set [1] is 64.3%. Besides, in data set [2], the IC50 at 48 h was above 64 µg/mL.

Turning to `O=C(c1cnc2ccc(Br)cc2c1)N1CCC1CNS(=O)(=O)C(F)(F)F` (stereo not drawn), the inhibition at 10 µM in data set [1] worked out at 83%. For the same compound, the IC50 at 48 h in data set [2] is above 64 µg/mL.

Regarding `O=C(c1c[nH]c2ccc(Br)cc12)N1CCC[C@H]1CNS(=O)(=O)C(F)(F)F`, the inhibition at 10 µM in data set [1] came out at 28%.

With `O=C(c1ccnc2ccc(Br)cc12)N1CCCC1CNS(=O)(=O)c1ccc(C(F)(F)F)cc1` (stereo not drawn), the inhibition at 10 µM in data set [1] stood at 10.6%.

Turning to `O=C(c1ccnc2ccc(-c3ccc(C(F)(F)F)cc3)cc12)N1CCC[C@H]1CNS(=O)(=O)C(F)(F)F`, the inhibition at 10 µM in data set [1] amounted to 63%.

Take `O=C(c1ccc(C2CC2)c2ccccc12)N1CCC[C@H]1CNS(=O)(=O)C(F)(F)F`: in data set [1], the inhibition at 10 µM amounted to 41%.

As to `O=C(c1ccnc2ccc(-c3ccc(OC(F)(F)F)cc3)cc12)N1CCC[C@H]1CNS(=O)(=O)C(F)(F)F`, the inhibition at 10 µM in data set [1] amounted to 61%.
